Biological target: T1, hDGAT1 (Homo sapiens, UniProt O75907)
T1 construct: host or cells: Sf9 insect cells (baculovirus); microsomal preparation
T1 sequence (O75907 1-488): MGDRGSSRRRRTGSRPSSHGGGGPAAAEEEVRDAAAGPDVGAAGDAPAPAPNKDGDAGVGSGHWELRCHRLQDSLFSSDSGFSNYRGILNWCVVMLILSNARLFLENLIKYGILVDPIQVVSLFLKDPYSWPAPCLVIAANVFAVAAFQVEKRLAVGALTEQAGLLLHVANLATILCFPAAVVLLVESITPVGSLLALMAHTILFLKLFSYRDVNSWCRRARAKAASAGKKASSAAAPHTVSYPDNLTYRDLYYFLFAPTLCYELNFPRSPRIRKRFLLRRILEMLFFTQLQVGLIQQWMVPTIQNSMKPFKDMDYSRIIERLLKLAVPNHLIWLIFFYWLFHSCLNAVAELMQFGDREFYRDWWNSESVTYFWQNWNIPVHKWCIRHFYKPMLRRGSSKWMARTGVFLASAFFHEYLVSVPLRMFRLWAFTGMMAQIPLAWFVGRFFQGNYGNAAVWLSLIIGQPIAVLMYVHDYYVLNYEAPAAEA
Experiment: In-vitro DGAT1 assay (hDGAT1 microsomes from Sf9 cells, 14C oleoyl CoA, triglyceride formation)
Assay type: biochemical
Conditions: for inhibition at 5 µM / % inhibition of hDGAT1: At 5 μM
Outline: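 Human DGAT1 in baculovirus-infected Sf9 microsomes (2.5–10 μg), [14C]oleoyl-CoA with 409.5, 1228.5 or 1638 μM 1,2-dioleoyl-sn-glycerol, Tris-HCl pH 7.4 buffer with BSA. Compounds screened at 10, 5 and 1 μM in duplicate. Reaction 10 min at 37 °C; heptane-extracted [14C]triglyceride counted by scintillation.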

SMILES | inhibition at 1 µM [%] | inhibition at 5 µM [%] | also measured
CC(C)c1ccc(NC(=O)Nc2ccc(-c3cc(C(=O)N[C@H](C(=O)O)C(C)C)on3)cc2)cc1 [Example 228, (S)-2-(3-(4-(3-(4-Isopropylphenyl)ureido)phenyl)isoxazole-5-carboxamido)-3-methylbutanoic acid] | 75 to 100 | – | –
CC(C)[C@H](NC(=O)c1cc(-c2ccc(NC(=O)Nc3c(F)cccc3C(F)(F)F)cc2)no1)C(=O)O [Example 230, (S)-2-(3-(4-(3-(2-Fluoro-6-(trifluoromethyl)phenyl)ureido)phenyl)isoxazole-5-carboxamido)-3-methylbutanoic acid] | 0 to 50 | – | –
CC(C)[C@H](NC(=O)c1cc(-c2ccc(NC(=O)Nc3ccc(C(F)(F)F)cc3Cl)cc2)no1)C(=O)O [Example 232, (S)-2-(3-(4-(3-(2-Chloro-4-(trifluoromethyl)phenyl)ureido)phenyl)isoxazole-5-carboxamido)-3-methylbutanoic acid] | 75 to 100 | – | –
CC(C)[C@H](NC(=O)c1cc(-c2ccc(NC(=O)Nc3c(Cl)cccc3C(F)(F)F)cc2)no1)C(=O)O [Example 234, (S)-2-(3-(4-(3-(2-Chloro-6-(trifluoromethyl)phenyl)ureido)phenyl)isoxazole-5-carboxamido)-3-methylbutanoic acid] | 0 to 50 | – | –
CC(C)[C@H](NC(=O)c1cc(-c2ccc(NC(=O)Nc3cc(Cl)ccc3Oc3ccccc3)cc2)no1)C(=O)O [Example 236, (S)-2-(3-(4-(3-(5-Chloro-2-phenoxyphenyl)ureido)phenyl)isoxazole-5-carboxamido)-3-methylbutanoic acid] | 75 to 100 | – | –
CC(C)[C@H](NC(=O)c1cc(-c2ccc(NC(=O)Nc3ccc(Oc4ccccc4)cc3)cc2)no1)C(=O)O [Example 240, (S)-3-Methyl-2-(3-(4-(3-(4-phenoxyphenyl)ureido)phenyl)isoxazole-5-carboxamido)butanoic acid] | 75 to 100 | – | –
COC(=O)C(Cc1ccccc1)NC(=O)c1cc(-c2ccc(NC(=O)Nc3ccc(C)cc3)cc2)no1 (centres unmarked) [Example 243, Methyl 3-phenyl-2-(3-(4-(3-p-tolylureido)phenyl)isoxazole-5-carboxamido) propanoate] | – | – | % inhibition of hDGAT1: + (>0% Inhibition ≦50)
Cc1ccc(NC(=O)Nc2ccc(-c3cc(C(=O)NC(Cc4ccccc4)C(=O)O)on3)cc2)cc1 (centres unmarked) [Example 244, 3-Phenyl-2-(3-(4-(3-p-tolylureido)phenyl)isoxazole-5-carboxamido) propanoic acid] | – | 50 to 75 | –
Cc1ccc(NC(=O)Nc2ccc(-c3cc(C(=O)NC(C(=O)O)C(C)C)on3)cc2)cc1Cl (centres unmarked) [Example 248, 2-(3-(4-(3-(3-Chloro-4-methylphenyl)ureido)phenyl)isoxazole-5-carboxamido)-3-methylbutanoic acid] | 75 to 100 | – | –
COC(=O)CCCNC(=O)c1cc(-c2ccc(NC(=O)Nc3ccc(C)cc3)cc2)no1 [Example 255, Methyl 4-(3-(4-(3-p-tolylureido)phenyl)isoxazole-5-carboxamido) butanoate] | – | – | % inhibition of hDGAT1: + (>0% Inhibition ≦50)
Cc1ccc(NC(=O)Nc2ccc(-c3cc(C(=O)NCCCC(=O)O)on3)cc2)cc1 [Example 256, 4-(3-(4-(3-p-Tolylureido)phenyl)isoxazole-5-carboxamido)butanoic acid] | – | 50 to 75 | –
COC(=O)C(NC(=O)c1cc(-c2ccc(NC(=O)NS(=O)(=O)c3ccccc3C)cc2)no1)C(C)C (centres unmarked) [Example 263, Methyl 3-methyl-2-(3-(4-(3-(o-tolylsulfonyl)ureido)phenyl)isoxazole-5-carboxamido)butanoate] | – | 0 to 50 | –
Cc1ccccc1S(=O)(=O)NC(=O)Nc1ccc(-c2cc(C(=O)NC(C(=O)O)C(C)C)on2)cc1 (centres unmarked) [Example 264, 3-Methyl-2-(3-(4-(3-(o-tolylsulfonyl)ureido)phenyl)isoxazole-5-carboxamido)butanoic acid] | – | 0 to 50 | –
COC(=O)[C@@H](NC(=O)c1cc(-c2ccc(NC(=O)Nc3cccc(C)c3)cc2)no1)C(C)C [Example 265, (S)-methyl 3-methyl-2-(3-(4-(3-m-tolylureido)phenyl)isoxazole-5-carboxamido)butanoate] | – | 50 to 75 | –
Cc1cccc(NC(=O)Nc2ccc(-c3cc(C(=O)N[C@H](C(=O)O)C(C)C)on3)cc2)c1 [Example 266, (S)-3-methyl-2-(3-(4-(3-m-tolylureido)phenyl)isoxazole-5-carboxamido)butanoic acid] | – | 75 to 100 | –
COC(=O)[C@@H](NC(=O)c1cc(-c2ccc(NC(=S)Nc3cccc(F)c3)cc2)no1)C(C)C [Example 267, (S)-methyl 2-(3-(4-(3-(3-fluorophenyl)thioureido)phenyl)isoxazole-5-carboxamido)-3-methylbutanoate] | – | 0 to 50 | –

Continued, in another order:

inhibition at 1 µM [%] | inhibition at 5 µM [%] | SMILES | also measured
0 to 50 | – | CC(C)[C@@H](N/C(=N/O)c1cc(-c2ccc(NC(=O)Nc3ccccc3F)cc2)no1)C(=O)O [Example 226, (R,E)-2-(3-(4-(3-(2-Fluorophenyl)ureido)phenyl)-N′-hydroxyisoxazole-5-carboximidamido)-3-methylbutanoic acid] | –
75 to 100 | – | CC(C)[C@H](NC(=O)c1cc(-c2ccc(NC(=O)Nc3ccccc3Oc3ccccc3)cc2)no1)C(=O)O [Example 238, (S)-3-Methyl-2-(3-(4-(3-(2-phenoxyphenyl)ureido)phenyl)isoxazole-5-carboxamido)butanoic acid] | –
– | 0 to 50 | COC(=O)C(Cc1ccccc1)NC(=O)c1cc(-c2ccc(NC(=O)Nc3ccccc3F)cc2)no1 (centres unmarked) [Example 241, Methyl 2-(3-(4-(3-(2-fluorophenyl)ureido)phenyl)isoxazole-5-carboxamido)-3-phenylpropanoate] | –
– | 50 to 75 | O=C(Nc1ccc(-c2cc(C(=O)NC(Cc3ccccc3)C(=O)O)on2)cc1)Nc1ccccc1F (centres unmarked) [Example 242, 2-(3-(4-(3-(2-Fluorophenyl)ureido)phenyl)isoxazole-5-carboxamido)-3-phenylpropanoic acid] | –
– | 0 to 50 | COC(=O)C(Cc1ccccc1)NC(=O)c1cc(-c2ccc(NC(=O)Nc3ccc(F)cc3F)cc2)no1 (centres unmarked) [Example 245, Methyl 2-(3-(4-(3-(2,4-difluorophenyl)ureido)phenyl)isoxazole-5-carboxamido)-3-phenylpropanoate] | –
– | 50 to 75 | O=C(Nc1ccc(-c2cc(C(=O)NC(Cc3ccccc3)C(=O)O)on2)cc1)Nc1ccc(F)cc1F (centres unmarked) [Example 246, 2-(3-(4-(3-(2,4-Difluorophenyl)ureido)phenyl)isoxazole-5-carboxamido)-3-phenylpropanoic acid] | –
75 to 100 | – | Cc1ccc(NC(=O)Nc2ccc(-c3cc(C(=O)NC(C(=O)O)C(C)C)on3)cc2)cc1F (centres unmarked) [Example 250, 2-(3-(4-(3-(3-Fluoro-4-methylphenyl)ureido)phenyl)isoxazole-5-carboxamido)-3-methylbutanoic acid] | –
75 to 100 | – | Cc1ccc(F)cc1NC(=O)Nc1ccc(-c2cc(C(=O)NC(C(=O)O)C(C)C)on2)cc1 (centres unmarked) [Example 252, 2-(3-(4-(3-(5-Fluoro-2-methylphenyl)ureido)phenyl)isoxazole-5-carboxamido)-3-methylbutanoic acid] | –
– | 0 to 50 | COC(=O)CCCNC(=O)c1cc(-c2ccc(NC(=O)Nc3ccccc3F)cc2)no1 [Example 253, Methyl 4-(3-(4-(3-(2-fluorophenyl)ureido)phenyl)isoxazole-5-carboxamido)butanoate] | –
– | 50 to 75 | O=C(O)CCCNC(=O)c1cc(-c2ccc(NC(=O)Nc3ccccc3F)cc2)no1 [Example 254, 4-(3-(4-(3-(2-Fluorophenyl)ureido)phenyl)isoxazole-5-carboxamido) butanoic acid] | –
0 to 50 | – | COC(=O)[C@H](NC(=O)c1cc(-c2ccc(NC(=O)Nc3ccccc3F)cc2)no1)C(C)C [Example 257, (R)-Methyl 2-(3-(4-(3-(2-fluorophenyl)ureido)phenyl)isoxazole-5-carboxamido)-3-methylbutanoate] | –
50 to 75 | – | CC(C)[C@@H](NC(=O)c1cc(-c2ccc(NC(=O)Nc3ccccc3F)cc2)no1)C(=O)O [Example 258, (R)-2-(3-(4-(3-(2-Fluorophenyl)ureido)phenyl)isoxazole-5-carboxamido)-3-methylbutanoic acid] | –
50 to 75 | – | COC(=O)[C@H]1CCCN1C(=O)c1cc(-c2ccc(NC(=O)Nc3ccccc3F)cc2)no1 [Example 259, (R)-Methyl 1-(3-(4-(3-(2-fluorophenyl)ureido)phenyl)isoxazole-5-carbonyl)pyrrolidine-2-carboxylate] | –
50 to 75 | – | O=C(Nc1ccc(-c2cc(C(=O)N3CCC[C@@H]3C(=O)O)on2)cc1)Nc1ccccc1F [Example 260, (R)-1-(3-(4-(3-(2-Fluorophenyl)ureido)phenyl)isoxazole-5-carbonyl) pyrrolidine-2-carboxylic acid] | –
50 to 75 | – | COC(=O)[C@@H]1CCCN1C(=O)c1cc(-c2ccc(NC(=O)Nc3ccccc3F)cc2)no1 [Example 261, (S)-Methyl 1-(3-(4-(3-(2-fluorophenyl)ureido)phenyl)isoxazole-5-carbonyl)pyrrolidine-2-carboxylate] | –
50 to 75 | – | O=C(Nc1ccc(-c2cc(C(=O)N3CCC[C@H]3C(=O)O)on2)cc1)Nc1ccccc1F [Example 262, (S)-1-(3-(4-(3-(2-Fluorophenyl)ureido)phenyl)isoxazole-5-carbonyl) pyrrolidine-2-carboxylic acid] | –

Source: patent publication US8835428B2, “Diacylglycerol acyltransferase inhibitors” (Piramal Enterprises Limited, priority 2008, dated 2014)
